32 molecules from patent US20260132126A1, “IMIDAZOLE DERIVATIVES” (SANWA KAGAKU KENKYUSHO CO., LTD., priority 2022, published 2026) can be followed below.

For the assay, the target named is T1, human α1A adrenergic receptor (Homo sapiens, UniProt P35348).
T1 construct: host or cells: GeneBLAzer ADRA1A-NFAT-bla CHO-K1 cells
T1 sequence (P35348 1-466): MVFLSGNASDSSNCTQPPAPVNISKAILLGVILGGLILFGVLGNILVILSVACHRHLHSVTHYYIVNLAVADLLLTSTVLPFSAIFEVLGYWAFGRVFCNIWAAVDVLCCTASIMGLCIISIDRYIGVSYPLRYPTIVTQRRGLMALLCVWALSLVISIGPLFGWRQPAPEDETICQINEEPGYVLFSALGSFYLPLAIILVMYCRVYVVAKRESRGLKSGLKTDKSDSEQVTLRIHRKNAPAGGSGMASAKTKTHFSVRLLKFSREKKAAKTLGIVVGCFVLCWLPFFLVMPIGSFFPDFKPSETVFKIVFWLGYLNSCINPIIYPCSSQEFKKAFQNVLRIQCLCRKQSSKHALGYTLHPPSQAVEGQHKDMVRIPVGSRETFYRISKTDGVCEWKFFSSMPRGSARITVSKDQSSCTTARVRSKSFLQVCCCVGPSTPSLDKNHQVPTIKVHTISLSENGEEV
As to the kind of experiment: Ca2+ mobilization assay in human α1A adrenergic receptor-expressing cells. Format: cell-based. The settings on record: for Emax at 10 µM: % activation at 10 μmol/L test compound, 100 μmol/L norepinephrine = 100%, well without test compound = 0%; for EC50: CHO-K1 cells expressing human α1A adrenergic receptor, Fluo-4 fluorescence, concentration giving 50% response of Emax, 4-parameter logistic regression. How it is done:
CHO-K1 cells that highly express a human α1A adrenergic receptor (GeneBLAzer™ ADRA1A-NFAT-bla CHO-K1 Cells) were purchased from Thermo Fisher Scientific, Inc., and cultured according to the instructions.
The cultured human α1A adrenergic receptor-expressing cells were washed with D-PBS, then replaced with a loading buffer (2 μmol/L Fluo-4/AM, 1× PowerLoad, 2.5 mmol/L Probenecid-containing DMEM (high-glucose)) and incubated at 37° C. for 60 minutes in a 5% CO2 incubator. The cells were detached using 0.05% trypsin-EDTA solution, and suspended in an assay buffer ([…], 0.054 mol/L KCl, 1.8 mmol/L CaCl2), 1 mmol/L MgSO4, 0.11 mol/L glucose, 0.01 mol/L NaH2PO4·2H2O, […], pH 7.3) to be 500,000 cells/mL.
Test compounds were dissolved in dimethylsulfoxide, and diluted with an assay buffer containing 0.3% BSA. The final concentrations of the test compounds were set to fall within the range of 0.1 nmol/L to 10 μmol/L. As a reference compound, norepinephrine was set to have a final concentration within the range of 0.01 nmol/L to 100 μmol/L.
On a 384-well clear bottom black plate coated with poly-D-lysine (Corning Inc.), the above-described cell-suspended solution was dispersed in 40 μL each (20,000 cells/well) and allowed to stand for 10 minutes. The plate was transferred to a fluorescent imaging plate reader (FDSS7000, Hamamatsu Photonics K.K.), and measurements were started. After 1 minute from the start of the measurements, 20 μL of the test compound solutions or norepinephrine solution (total amount: 60 μL/well) was added to each well of the plate (final concentration: 0.1% BSA, 0.1% dimethylsulfoxide), and the temporal change in fluorescence intensity of Fluo-4 was further measured for 5 minutes (Ex 480 nm/Em 540 nm).
The normalized values (% activation) were used for subsequent analyses.
Emax values and EC50 values were calculated by creating a concentration-response curve of the test compounds using a 4-parameter logistic regression with XLFit, Emax value being defined as % activation of test compound at the concentration of 10 μmol/L, and EC50 value being defined as the concentration in which 50% response of the Emax values is shown.

`CC(Nc1ccccc1-c1cccnc1)c1c[nH]cn1` (single isomer, unassigned; (+)) [Example 36, (+)-N-(1-(1H-Imidazol-4-yl)ethyl)-2-(pyridin-3-yl)aniline] displayed an Emax at 10 µM of 86% and an EC50 of 3.7 nM.
For `COc1cccc(-c2ccccc2NC(C)c2c[nH]cn2)n1` (single isomer, unassigned; (+)) [Example 39, (+)-N-(1-(1H-Imidazol-4-yl)ethyl)-2-(6-methoxypyridin-2-yl)aniline] the same measures were 94% and 1.9 nM.
The molecule `CC(Nc1ccccc1-c1cscn1)c1c[nH]cn1` (single isomer, unassigned; (+)) [Example 40, (+)-N-(1-(1H-Imidazol-4-yl)ethyl)-2-(thiazol-4-yl)aniline] registered an Emax at 10 µM of 111% and an EC50 of 0.6 nM.
In turn, `CC(Oc1ccccc1-c1cccs1)c1c[nH]cn1` (single isomer, unassigned; (+)) [Example 79, (+)-4-(1-(2-(Thiophen-2-yl)phenoxy)ethyl)-1H-imidazole] gave an Emax at 10 µM of 108% and an EC50 of 4.5 nM.
Take `c1csc(-c2cscc2NCc2c[nH]cn2)c1` [Example 1]: the maximum response (Emax) at 10 µM worked out at 103% and it took 0.8 nM to reach a half-maximal effect (EC50).
In turn, `c1csc(-c2sccc2NCc2c[nH]cn2)c1` [Example 2, N-((1H-imidazol-4-yl)methyl)-[2,2′-bithiophen]-3-amine] gave an Emax at 10 µM of 105% and an EC50 of 0.9 nM.
In turn, `c1cncc(-c2cscc2NCc2c[nH]cn2)c1` [Example 3, N-((1H-imidazol-4-yl)methyl)-4-(pyridin-3-yl)thiophen-3-amine] had an Emax at 10 µM of 92% and an EC50 of 0.3 nM.
For `COc1ccncc1-c1cscc1NCc1c[nH]cn1` [Example 4, N-((1H-imidazol-4-yl)methyl)-4-(4-methoxypyridin-3-yl)thiophen-3-amine] the same measures were 93% and 0.6 nM.
In turn, `COc1cncc(-c2cscc2NCc2c[nH]cn2)c1` [Example 5, N-((1H-imidazol-4-yl)methyl)-4-(5-methoxypyridin-3-yl)thiophen-3-amine] had an Emax at 10 µM of 98% and an EC50 of 0.3 nM.
For `Fc1cncc(-c2cscc2NCc2c[nH]cn2)c1` [Example 6, N-((1H-imidazol-4-yl)methyl)-4-(5-fluoropyridin-3-yl)thiophen-3-amine] the same measures were 92% and 1.1 nM.
For `c1cncc(-c2sccc2NCc2c[nH]cn2)c1` [Example 7, N-((1H-imidazol-4-yl)methyl)-2-(pyridin-3-yl)thiophen-3-amine] the same measures were 92% and 4.5 nM.
For `c1cc(-c2cscc2NCc2c[nH]cn2)[nH]n1` [Example 8, N-((1H-imidazol-4-yl)methyl)-4-(1H-pyrazol-5-yl)thiophen-3-amine], the Emax at 10 µM worked out at 96% and a half-maximal response (EC50) required 1.2 nM.
Molecule `c1cncc(-c2ccccc2NCc2c[nH]cn2)c1` [Example 9, N-((1H-imidazol-4-yl)methyl)-2-(pyridin-3-yl)aniline] returned an Emax at 10 µM of 101% and an EC50 of 2.1 nM.
For `c1ccc(-c2cncnc2)c(NCc2c[nH]cn2)c1` [Example 10, N-((1H-imidazol-4-yl)methyl)-2-(pyrimidin-5-yl)aniline], the Emax at 10 µM was 103% and the EC50 worked out at 3.8 nM.
The corresponding values for `c1ccc(-c2cncs2)c(NCc2c[nH]cn2)c1` [Example 11, N-((1H-imidazol-4-yl)methyl)-2-(thiazol-5-yl)aniline] are 104% and 1.8 nM.
For `c1csc(-c2cscc2NCc2c[nH]cn2)n1` [Example 12, N-((1H-imidazol-4-yl)methyl)-4-(thiazol-2-yl)thiophen-3-amine] the same measures were 101% and 0.4 nM.
The molecule `c1cnc(-c2cscc2NCc2c[nH]cn2)cn1` [Example 13, N-((1H-imidazol-4-yl)methyl)-4-(pyrazin-2-yl)thiophen-3-amine] registered an Emax at 10 µM of 101% and an EC50 of 1.1 nM.
The corresponding values for `c1nc(CNc2cscc2-c2cscn2)c[nH]1` [Example 14, N-((1H-imidazol-4-yl)methyl)-4-(thiazol-4-yl)thiophen-3-amine] are 88% and 2.2 nM.
The corresponding values for `c1ccc(-c2cscn2)c(NCc2c[nH]cn2)c1` [Example 15, N-((1H-imidazol-4-yl)methyl)-2-(thiazol-4-yl)aniline] are 98% and 0.1 nM.
For `Cc1cccnc1-c1cscc1NCc1c[nH]cn1` [Example 16, N-((1H-imidazol-4-yl)methyl)-4-(3-methylpyridin-2-yl)thiophen-3-amine], the maximal response (Emax) at 10 µM was determined as 88% and a half-maximal effect (EC50) was put at 9.6 nM.
In the case of `COc1cccnc1-c1cscc1NCc1c[nH]cn1` [Example 17, N-((1H-imidazol-4-yl)methyl)-4-(3-methoxypyridin-2-yl)thiophen-3-amine], the Emax at 10 µM was found to be 90% and the EC50 is 2 nM.
`Cc1ncsc1-c1cscc1NCc1c[nH]cn1` [Example 18, N-((1H-imidazol-4-yl)methyl)-4-(4-methylthiazol-5-yl)thiophen-3-amine] had an Emax at 10 µM of 88% and an EC50 of 5.3 nM.
The corresponding values for `Cc1ncncc1-c1ccccc1NCc1c[nH]cn1` [Example 19, N-((1H-imidazol-4-yl)methyl)-2-(4-methylpyrimidin-5-yl)aniline] are 102% and 3.1 nM.
The molecule `Cc1ccc(-c2cncnc2C)c(NCc2c[nH]cn2)c1` [Example 20, N-((1H-imidazol-4-yl)methyl)-5-methyl-2-(4-methylpyrimidin-5-yl)aniline] had a maximum response (Emax) at 10 µM of 91% and an EC50 of 2.4 nM.
The corresponding values for `COc1ccnc(-c2cscc2NCc2c[nH]cn2)c1` [Example 21, N-((1H-imidazol-4-yl)methyl)-4-(4-methoxypyridin-2-yl)thiophen-3-amine] are 92% and 0.2 nM.
For `COc1cccc(-c2cscc2NCc2c[nH]cn2)n1` [Example 22, N-((1H-imidazol-4-yl)methyl)-4-(6-methoxypyridin-2-yl)thiophen-3-amine] the same measures were 88% and 1.2 nM.
For `COc1ncncc1-c1cscc1NCc1c[nH]cn1` [Example 23, N-((1H-imidazol-4-yl)methyl)-4-(4-methoxypyrimidin-5-yl)thiophen-3-amine] the same measures were 95% and 0.1 nM.
Consider `Cc1scnc1-c1cscc1NCc1c[nH]cn1` [Example 24, N-((1H-imidazol-4-yl)methyl)-4-(5-methylthiazol-4-yl)thiophen-3-amine], for which the Emax at 10 µM turned out to be 101% and the half-maximal effective concentration (EC50) came out at 0.2 nM.
In turn, `Cc1ncncc1-c1ccc(F)cc1NCc1c[nH]cn1` [Example 25, N-((1H-imidazol-4-yl)methyl)-5-fluoro-2-(4-methylpyrimidin-5-yl)aniline] registered an Emax at 10 µM of 100% and a concentration giving a half-maximal response (EC50) of 1.7 nM.
Turning to `c1ccc(-c2cnccn2)c(NCc2c[nH]cn2)c1` [Example 26, N-((1H-imidazol-4-yl)methyl)-2-(pyrazin-2-yl)aniline], the Emax at 10 µM stood at 105% and it took 1.2 nM to reach a half-maximal effect (EC50).
For `c1ccc(-c2ccccc2NCc2c[nH]cn2)nc1` [Example 27, N-((1H-imidazol-4-yl)methyl)-2-(pyridin-2-yl)aniline] the same measures were 100% and 2.3 nM.
The molecule `COc1cccnc1-c1ccccc1NCc1c[nH]cn1` [Example 28, N-((1H-imidazol-4-yl)methyl)-2-(3-methoxypyridin-2-yl)aniline] returned an Emax at 10 µM of 96% and an EC50 of 4.9 nM.
